Columns and labels:
[1] = test system: human cervical tumor cell line HeLa (ATCC CCL-2); test: SAC-Formation - Paclitaxel-Induced Assay; format: cell-based; details: Homo sapiens, HeLa, 24 h, HeLa cells, paclitaxel 0.05 μM, test range 0.005 μM-20 μM, read-out: IC50 [mol/l] SAC-Formation - Paclitaxel-Induced Assay
In short: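 Read-out is high-content imaging of anti-phospho-H3 Ser10 (mitosis) and Hoechst 33342 (DNA, cell number), with decreased mitotic fraction marking checkpoint breakthrough. Compounds (0.005–20 μM) and 0.05 μM paclitaxel co-added to overnight-plated HeLa for 24 h at 37° C; four-parameter Hill fit.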

CDK2/CycE = biological target: T1, CDK2/CycE (Homo sapiens, UniProt P24941); test: CDK2/CycE kinase assay (TR-FRET); format: biochemical; details: avg, read-out: CDK2 avg (IC50 [mol/l])
T1 construct: GST; purchased ProQinase GmbH (Freiburg, Germany); host or cells: insect cells (Sf9)
In short: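 Read-out is a TR-FRET 665/620 nm emission ratio from EDTA-stopped reactions detected with anti-pRB(pSer807/pSer811), Eu-labelled anti-mouse IgG and streptavidin-XL665, scaled between no-enzyme and uninhibited wells. Reaction: Sf9-expressed GST-CDK2/GST-CycE, 15 min compound preincubation, 10 μM ATP, 0.75 μM biotin-peptide, 25 min, 22° C., pH 8.0 Tris buffer.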

| IC50 [1] [µM] | IC50 (CDK2/CycE) [µM] | SMILES |
| --- | --- | --- |
| 0.22 | > 20 | Cc1nsc(Nc2cnc3ccccc3n2)c1C(=O)Nc1ccc(C(N)=O)c(F)c1 [Example 201, N-(4-carbamoyl-3-fluorophenyl)-3-methyl-5-(quinoxalin-2-ylamino)-1,2-thiazole-4-carboxamide] |
| 2.2 | > 20 | Cc1nsc(Nc2ccc(C#N)cn2)c1C(=O)Nc1cccc(NC(=O)OC(C)(C)C)c1 [Example 179, tert-butyl {3-[({5-[(5-cyanopyridin-2-yl)amino]-3-methyl-1,2-thiazol-4-yl}carbonyl)amino]phenyl}carbamate] |
| 0.11 | > 20 | Cc1nsc(Nc2ccc(C#N)cn2)c1C(=O)Nc1ccc(OCCC(=O)OC(C)(C)C)nc1 [Example 199, tert-butyl 3-({5-[({5-[(5-cyanopyridin-2-yl)amino]-3-methyl-1,2-thiazol-4-yl}carbonyl)amino]pyridin-2-yl}oxy)propanoate] |
| 0.45 | > 20 | Cc1nsc(Nc2cncc(C(F)(F)F)n2)c1C(=O)Nc1ccc(OC2CCCN(C(=O)OC(C)(C)C)C2)nc1 (stereo not shown) [Example 189, tert-butyl 3-[(5-{[(3-methyl-5-{[6-(trifluoromethyl)pyrazin-2-yl]amino}-1,2-thiazol-4-yl)carbonyl]amino}pyridin-2-yl)oxy]piperidine-1-carboxylate] |
| 0.5 | > 20 | Cc1nsc(Nc2cnc(C(F)(F)F)cn2)c1C(=O)Nc1ccc(OCCN)c(F)c1 [Example 221, 3-N-[4-(2-aminoethoxy)-3-fluorophenyl]-3-methyl-5-{[5-(trifluoromethyl)pyrazin-2-yl]amino}-1,2-thiazole-4-carboxamide] |
| 20 | > 20 | CC(=O)Nc1cc(NC(=O)c2c(C)nsc2Nc2cnccn2)ccc1F [Example 205, N-(3-acetamido-4-fluorophenyl)-3-methyl-5-(pyrazin-2-ylamino)-1,2-thiazole-4-carboxamide] |
| 1.3 | > 20 | Cc1nsc(Nc2cncc(C(F)(F)F)n2)c1C(=O)Nc1ccc(OCCN)nc1 [Example 196, N-[6-(2-aminoethoxy)pyridin-3-yl]-3-methyl-5-{[6-(trifluoromethyl)pyrazin-2-yl]amino}-1,2-thiazole-4-carboxamide] |
| 0.077 | > 20 | Cc1nsc(Nc2ccc(C#N)cn2)c1C(=O)Nc1ccc(S(C)(=O)=O)cc1 [Example 246, 5-[(5-cyanopyridin-2-yl)amino]-3-methyl-N-[4-(methylsulfonyl)phenyl]-1,2-thiazole-4-carboxamide] |
| 1.4 | > 20 | Cc1nsc(Nc2cnc3ccccc3n2)c1C(=O)Nc1ccc(C(=O)O)cc1 [Example 187, 4-({[3-methyl-5-(quinoxalin-2-ylamino)-1,2-thiazol-4-yl]carbonyl}amino)benzoic acid] |
| 0.3 | ≥ 20 | CC(=O)N1CCC(Oc2ccc(NC(=O)c3c(C)nsc3Nc3cncc(C(F)(F)F)n3)cn2)CC1 [Example 17, N-{6-[(1-Acetylpiperidin-4-yl)oxy]pyridin-3-yl}-3-methyl-5-{[6-(trifluoromethyl)-pyrazin-2-yl]amino}-1,2-thiazole-4-carboxamide] |
| 3.3 | > 20 | Cc1nsc(Nc2cc(C#N)ccn2)c1C(=O)Nc1ccc(NC2CCCNC2)nc1 (stereo not shown) [Example 242, 5-[(4-cyanopyridin-2-yl)amino]-3-methyl-N-[6-(piperidin-3-ylamino)pyridin-3-yl]-1,2-thiazole-4-carboxamide] |
| 4.9 | > 20 | Cc1nsc(Nc2cc(C#N)ccn2)c1C(=O)Nc1cccc(NC(=O)C(C)(C)C)c1 [Example 183, 5-[(4-cyanopyridin-2-yl)amino]-N-{3-[(2,2-dimethylpropanoyl)amino]phenyl}-3-methyl-1,2-thiazole-4-carboxamide] |
| 0.14 | > 20 | Cc1nsc(Nc2cnccn2)c1C(=O)Nc1ccc(C(=O)OC(C)(C)C)cc1 [Example 184, tert-butyl 4-({[3-methyl-5-(pyrazin-2-ylamino)-1,2-thiazol-4-yl]carbonyl}amino)benzoate] |
| 7.7 | > 20 | CNS(=O)(=O)c1ccc(NC(=O)c2c(C)nsc2Nc2cc(C#N)ccn2)cc1 [Example 210, 5-[(4-cyanopyridin-2-yl)amino]-3-methyl-N-[4-(methylsulfamoyl)phenyl]-1,2-thiazole-4-carboxamide] |
| 0.45 | > 20 | Cc1nsc(Nc2cncc(C(F)(F)F)n2)c1C(=O)Nc1ccc(F)c(C(N)=O)c1 [Example 204, N-(3-carbamoyl-4-fluorophenyl)-3-methyl-5-{[6-(trifluoromethyl)pyrazin-2-yl]amino}-1,2-thiazole-4-carboxamide] |
| 0.18 | ≥ 20 | Cc1nsc(Nc2cnc3ccccc3n2)c1C(=O)Nc1ccc(OC2CCN(CC(F)F)CC2)nc1 [Example 20, N-(6-{[1-(2,2-difluoroethyl)piperidin-4-yl]oxy}pyridin-3-yl)-3-methyl-5-(quinoxalin-2-ylamino)-1,2-thiazole-4-carboxamide] |
| 2.9 | > 20 | Cc1nsc(Nc2cnc(C(F)(F)F)cn2)c1C(=O)Nc1ccc(C(=O)NCCN2CCCC(F)C2)cc1 (stereo not shown) [Example 213, N-(4-{[2-(3-fluoropiperidin-1-yl)ethyl]carbamoyl}phenyl)-3-methyl-5-{[5-(trifluoromethyl)pyrazin-2-yl]amino}-1,2-thiazole-4-carboxamide] |
| 6.5 | > 20 | Cc1cc(C)n(-c2ccccc2NC(=O)c2c(C)nsc2Nc2cnc3ccccc3n2)n1 [Example 243, N-[2-(3,5-dimethyl-1H-pyrazol-1-yl)phenyl]-3-methyl-5-(quinoxalin-2-ylamino)-1,2-thiazole-4-carboxamide] |
| 4.1 | > 20 | CNS(=O)(=O)c1ccc(NC(=O)c2c(C)nsc2Nc2cnc(C(F)(F)F)cn2)cc1 [Example 212, 3-methyl-N-[4-(methylsulfamoyl)phenyl]-5-{[5-(trifluoromethyl)pyrazin-2-yl]amino}-1,2-thiazole-4-carboxamide] |
| 0.14 | > 20 | CCN(CC)CCNC(=O)c1cccc(NC(=O)c2c(C)nsc2Nc2cnccn2)c1 [Example 247, N-(3-{[2-(diethylamino)ethyl]carbamoyl}phenyl)-3-methyl-5-(pyrazin-2-ylamino)-1,2-thiazole-4-carboxamide] |
| 0.63 | 13 | Cc1nsc(Nc2cncc(C(F)(F)F)n2)c1C(=O)Nc1ccc(OC2CCN(CCF)CC2)nc1 [Example 14, N-(6-{[1-(2-Fluoroethyl)piperidin-4-yl]oxy}pyridin-3-yl)-3-methyl-5-{[6-(trifluoro-methyl)pyrazin-2-yl]amino}-1,2-thiazole-4-carboxamide] |
| 1.7 | 12 | Cc1nsc(Nc2cnc3ccccc3n2)c1C(=O)Nc1ccc(Nc2ccc(F)c(F)c2)nc1 [Example 245, N-{6-[(3,4-difluorophenyl)amino]pyridin-3-yl}-3-methyl-5-(quinoxalin-2-ylamino)-1,2-thiazole-4-carboxamide] |
| 8.5 | > 20 | Cc1nsc(Nc2ccc(C#N)cn2)c1C(=O)Nc1ccc(F)c(C(N)=O)c1 [Example 203, N-(3-carbamoyl-4-fluorophenyl)-5-[(5-cyanopyridin-2-yl)amino]-3-methyl-1,2-thiazole-4-carboxamide] |
| 9.7 | > 20 | Cc1nsc(Nc2cnc3ccccc3n2)c1C(=O)Nc1ccc(NCC2CCN(C(=O)OC(C)(C)C)CC2)nc1 [Example 238, tert-butyl 4-({[5-({[3-methyl-5-(quinoxalin-2-ylamino)-1,2-thiazol-4-yl]carbonyl}amino)pyridin-2-yl]amino}methyl)piperidine-1-carboxylate] |
| 0.51 | 12 | Cc1nsc(Nc2cncc(C(F)(F)F)n2)c1C(=O)Nc1ccc(C(=O)OC(C)(C)C)cc1 [Example 193, tert-butyl tert-butyl 4-{[(3-methyl-5-{[6-(trifluoromethyl)pyrazin-2-yl]amino}-1,2-thiazol-4-yl)carbonyl]amino}benzoate] |
| 2.3 | > 20 | Cc1nsc(Nc2cnc3ccccc3n2)c1C(=O)Nc1ccc(NC2CCCN(C(=O)OC(C)(C)C)C2)nc1 (stereo not shown) [Example 241, tert-butyl 3-{[5-({[3-methyl-5-(quinoxalin-2-ylamino)-1,2-thiazol-4-yl]carbonyl}amino)pyridin-2-yl]amino}piperidine-1-carboxylate] |
| 0.21 | > 20 | Cc1nsc(Nc2cncc(C(F)(F)F)n2)c1C(=O)Nc1ccc(OCC2CCN(C(=O)OC(C)(C)C)CC2)nc1 [Example 226, tert-butyl 4-{[(5-{[(3-methyl-5-{[6-(trifluoromethyl)pyrazin-2-yl]amino}-1,2-thiazol-4-yl)carbonyl]amino}pyridin-2-yl)oxy]methyl}piperidine-1-carboxylate] |
| 1.6 |  | Cc1nsc(Nc2cncc(C(F)(F)F)n2)c1C(=O)Nc1ccc(C(=O)NCCN2CCCC(F)(F)C2)cc1 [Example 214, N-(4-{[2-(3,3-difluoropiperidin-1-yl)ethyl]carbamoyl}phenyl)-3-methyl-5-{[6-(trifluoromethyl)pyrazin-2-yl]amino}-1,2-thiazole-4-carboxamide] |
